Here are results for 2 molecules from patent publication US7326721B2 (Hypnion, Inc., priority 2003, dated 2008).

Data set [1] in a line: Protein binding in rat plasma. Type of data set: in vitro ADME. As for the experimental part:
HY2901 was administered to rats, dogs, and cynomolgus monkeys at a dose of 3 mg/kg orally and intravenously. Plasma samples were collected from all species for pharmacokinetic analysis. […] HY2901 is 75% protein bound in rat plasma and 60% protein bound in human plasma.

A further data set addresses T1, CYP 2C19 (Homo sapiens, UniProt P33261).
T1 construct: in a commercially available human microsomal preparation; purchased; host or cells: human microsomal preparation
Briefly: Cytochrome P450 inhibition: CYP 2C19. Type of data set: in vitro ADME. Conditions: human microsomal preparation. As for the experimental part:
(§1) Cytochrome P450 inhibition was studied with HY2901 in vitro. […] In addition, the in vitro rate of metabolism in rat, dog, monkey, and human hepatocyte cultures was determined for HY2901.

The next data set concerns CYP 3A. As to the kind of experiment: Cytochrome P450 inhibition: CYP 3A. The note with it: human microsomal preparation. Type of data set: in vitro ADME. On the procedure:
as §1

Another data set concerns rat hepatocytes. Briefly: In vitro rate of metabolism in rat hepatocyte cultures. The data set is classed as in vitro ADME. As for the experimental part:
as §1

A further data set addresses hERG (Homo sapiens, UniProt Q12809). Briefly: in vitro. Conditions: pH 7.4.
A short description of data set [2]: Brain levels of parent drug after oral administration. Conditions: rat, 3 mg/kg.
A further data set has as its system Glutamate, AMPA Site. Briefly: Table 12 panel: Glutamate, AMPA. Type of data set: binding. The note with it: 1.0E−6, average N=2. The source says:
(§2) The percentage inhibition (average; N=2) for these receptors is shown below in Table 12.
(§3) Values in Table 12 are expressed as percentage inhibition of specific binding, and these values represent the average of replicate tubes at each of the concentrations tested.

The target in data set [3] is Norepinephrine Transporter (Homo sapiens, UniProt P23975). Briefly: Table 12 panel: Norepinephrine Transporter. The note with it: 1.0E−6, average N=2, read-out: percentage inhibition of specific binding.
From the text: as §2, §3

Another data set deals with Opioid, Non-selective. As to the kind of experiment: Table 12 panel: Opioid. The data set is classed as binding. The note with it: 1.0E−6, average N=2.
From the text: as §2, §3

A further data set addresses Thromboxane A2 (h) (Homo sapiens, UniProt P21731). Briefly: Table 12 panel: Thromboxane A2. Conditions: 1.0E−6, average N=2, read-out: percentage inhibition of specific binding.
From the text: as §2, §3

The next data set deals with Bradykinin, BK2 (Homo sapiens, UniProt P30411). Briefly: Table 12 panel: Bradykinin, BK2. Conditions: 1.0E−6, average N=2, read-out: percentage inhibition of specific binding.
From the text: as §2, §3

A further data set has as its system Galanin, Non-Selective. As to the kind of experiment: Table 12 panel: Galanin. The data set is classed as binding. The note with it: 1.0E−6, average N=2.
From the text: as §2, §3

Data set [4] deals with Choline Acetyltransferase (Homo sapiens, UniProt P28329). Briefly: Table 12 panel: Choline Acetyltransferase. Type of data set: biochemical. Conditions: 1.0E−6, average N=2.
From the text: as §2, §3

A further data set concerns the target Esterase, Acetylcholine (Homo sapiens, UniProt P22303). Briefly: Table 12 panel: Acetylcholine esterase. Type of data set: biochemical. The note with it: 1.0E−6, average N=2.
From the text: as §2, §3

The target of data set [5] is Oxidase, MAO-B, Peripheral (Homo sapiens, UniProt P27338). As to the kind of experiment: Table 12 panel: MAO-B. The data set is classed as biochemical. The note with it: 1.0E−6, average N=2.
From the text: as §2, §3

Molecules are shown by their SMILES.

hERG, sequence (Q12809 whole entry): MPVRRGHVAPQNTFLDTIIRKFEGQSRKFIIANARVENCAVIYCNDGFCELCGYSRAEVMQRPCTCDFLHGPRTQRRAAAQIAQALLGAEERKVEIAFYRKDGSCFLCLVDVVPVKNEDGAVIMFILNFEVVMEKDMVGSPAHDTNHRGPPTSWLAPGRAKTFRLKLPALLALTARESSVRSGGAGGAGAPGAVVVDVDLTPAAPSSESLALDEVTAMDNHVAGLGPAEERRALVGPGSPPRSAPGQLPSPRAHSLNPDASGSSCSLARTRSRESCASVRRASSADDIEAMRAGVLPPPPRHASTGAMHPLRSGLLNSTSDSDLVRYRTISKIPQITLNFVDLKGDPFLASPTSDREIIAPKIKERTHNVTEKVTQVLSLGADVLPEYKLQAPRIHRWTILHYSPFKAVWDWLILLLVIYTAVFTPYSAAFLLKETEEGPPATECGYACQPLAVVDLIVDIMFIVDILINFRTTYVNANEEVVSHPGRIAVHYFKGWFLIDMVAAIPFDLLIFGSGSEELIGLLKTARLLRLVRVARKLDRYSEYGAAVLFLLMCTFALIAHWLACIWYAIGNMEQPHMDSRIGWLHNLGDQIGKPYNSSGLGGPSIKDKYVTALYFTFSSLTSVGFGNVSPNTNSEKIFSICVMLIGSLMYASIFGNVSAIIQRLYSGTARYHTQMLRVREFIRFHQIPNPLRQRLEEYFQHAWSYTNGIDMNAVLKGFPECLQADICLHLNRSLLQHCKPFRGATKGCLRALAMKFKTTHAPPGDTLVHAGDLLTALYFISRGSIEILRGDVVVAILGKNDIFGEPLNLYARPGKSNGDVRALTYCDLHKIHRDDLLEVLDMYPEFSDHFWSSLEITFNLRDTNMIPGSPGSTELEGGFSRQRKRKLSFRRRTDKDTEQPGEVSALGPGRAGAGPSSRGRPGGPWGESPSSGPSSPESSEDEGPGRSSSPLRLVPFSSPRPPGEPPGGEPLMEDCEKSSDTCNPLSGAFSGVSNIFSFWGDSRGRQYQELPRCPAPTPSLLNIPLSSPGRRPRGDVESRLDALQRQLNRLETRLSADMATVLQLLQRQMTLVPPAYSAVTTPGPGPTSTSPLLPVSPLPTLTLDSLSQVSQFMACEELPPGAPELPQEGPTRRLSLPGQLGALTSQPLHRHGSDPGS
Thromboxane A2 (h), sequence (P21731 whole entry): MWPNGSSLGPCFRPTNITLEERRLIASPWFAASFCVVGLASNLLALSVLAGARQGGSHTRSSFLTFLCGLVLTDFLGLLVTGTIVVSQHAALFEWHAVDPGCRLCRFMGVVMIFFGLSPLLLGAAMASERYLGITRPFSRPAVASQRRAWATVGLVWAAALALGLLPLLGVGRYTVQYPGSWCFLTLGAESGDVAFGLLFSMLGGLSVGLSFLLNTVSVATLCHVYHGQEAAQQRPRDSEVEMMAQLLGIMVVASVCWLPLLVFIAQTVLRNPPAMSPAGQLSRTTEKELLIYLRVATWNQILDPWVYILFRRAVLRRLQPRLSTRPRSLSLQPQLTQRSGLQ
T1 sequence (P33261 whole entry): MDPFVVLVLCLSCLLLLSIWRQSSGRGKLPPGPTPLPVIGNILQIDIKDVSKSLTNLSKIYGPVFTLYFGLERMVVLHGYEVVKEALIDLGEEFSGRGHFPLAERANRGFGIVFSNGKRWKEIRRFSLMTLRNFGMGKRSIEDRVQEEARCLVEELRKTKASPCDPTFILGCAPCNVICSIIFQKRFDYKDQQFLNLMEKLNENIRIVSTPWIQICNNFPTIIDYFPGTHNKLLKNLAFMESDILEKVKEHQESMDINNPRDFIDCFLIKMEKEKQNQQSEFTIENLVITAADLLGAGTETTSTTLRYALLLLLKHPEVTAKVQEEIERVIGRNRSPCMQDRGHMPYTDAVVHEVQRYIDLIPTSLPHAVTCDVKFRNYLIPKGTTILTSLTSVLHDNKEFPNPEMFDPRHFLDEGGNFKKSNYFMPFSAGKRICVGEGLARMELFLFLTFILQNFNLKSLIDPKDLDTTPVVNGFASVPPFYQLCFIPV
Esterase, Acetylcholine, sequence (P22303 32-614): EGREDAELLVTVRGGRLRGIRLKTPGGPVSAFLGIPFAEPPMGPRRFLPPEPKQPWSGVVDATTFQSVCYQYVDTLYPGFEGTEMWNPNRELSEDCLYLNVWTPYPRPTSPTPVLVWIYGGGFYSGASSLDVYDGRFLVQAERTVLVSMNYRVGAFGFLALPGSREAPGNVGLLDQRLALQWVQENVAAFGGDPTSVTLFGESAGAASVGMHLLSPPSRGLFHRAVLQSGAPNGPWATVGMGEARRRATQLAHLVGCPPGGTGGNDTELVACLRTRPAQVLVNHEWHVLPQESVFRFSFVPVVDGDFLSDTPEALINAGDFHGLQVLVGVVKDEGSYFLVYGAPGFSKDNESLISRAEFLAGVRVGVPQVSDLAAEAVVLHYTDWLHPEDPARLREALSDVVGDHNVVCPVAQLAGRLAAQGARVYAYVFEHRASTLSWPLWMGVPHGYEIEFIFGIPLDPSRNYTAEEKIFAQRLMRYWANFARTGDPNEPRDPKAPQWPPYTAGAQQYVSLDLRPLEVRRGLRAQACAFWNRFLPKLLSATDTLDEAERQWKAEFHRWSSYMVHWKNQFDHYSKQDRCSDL
Norepinephrine Transporter, sequence (P23975 whole entry, species assumed): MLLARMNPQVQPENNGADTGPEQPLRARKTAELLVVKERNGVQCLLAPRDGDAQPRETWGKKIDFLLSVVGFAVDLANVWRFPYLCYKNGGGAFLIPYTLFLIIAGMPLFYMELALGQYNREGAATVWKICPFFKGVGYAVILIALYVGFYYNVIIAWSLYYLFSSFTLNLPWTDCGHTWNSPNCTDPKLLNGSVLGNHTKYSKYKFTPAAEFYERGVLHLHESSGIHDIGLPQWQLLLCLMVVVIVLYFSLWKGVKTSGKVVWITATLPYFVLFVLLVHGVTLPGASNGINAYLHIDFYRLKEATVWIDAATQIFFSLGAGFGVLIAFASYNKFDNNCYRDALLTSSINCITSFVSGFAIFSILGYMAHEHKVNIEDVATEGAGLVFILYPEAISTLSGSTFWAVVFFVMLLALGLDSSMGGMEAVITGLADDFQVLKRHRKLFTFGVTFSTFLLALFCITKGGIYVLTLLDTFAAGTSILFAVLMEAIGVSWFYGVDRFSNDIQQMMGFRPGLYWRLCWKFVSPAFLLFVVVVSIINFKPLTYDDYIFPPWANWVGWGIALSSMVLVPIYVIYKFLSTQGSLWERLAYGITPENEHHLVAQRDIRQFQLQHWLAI
Choline Acetyltransferase, sequence (P28329 whole entry): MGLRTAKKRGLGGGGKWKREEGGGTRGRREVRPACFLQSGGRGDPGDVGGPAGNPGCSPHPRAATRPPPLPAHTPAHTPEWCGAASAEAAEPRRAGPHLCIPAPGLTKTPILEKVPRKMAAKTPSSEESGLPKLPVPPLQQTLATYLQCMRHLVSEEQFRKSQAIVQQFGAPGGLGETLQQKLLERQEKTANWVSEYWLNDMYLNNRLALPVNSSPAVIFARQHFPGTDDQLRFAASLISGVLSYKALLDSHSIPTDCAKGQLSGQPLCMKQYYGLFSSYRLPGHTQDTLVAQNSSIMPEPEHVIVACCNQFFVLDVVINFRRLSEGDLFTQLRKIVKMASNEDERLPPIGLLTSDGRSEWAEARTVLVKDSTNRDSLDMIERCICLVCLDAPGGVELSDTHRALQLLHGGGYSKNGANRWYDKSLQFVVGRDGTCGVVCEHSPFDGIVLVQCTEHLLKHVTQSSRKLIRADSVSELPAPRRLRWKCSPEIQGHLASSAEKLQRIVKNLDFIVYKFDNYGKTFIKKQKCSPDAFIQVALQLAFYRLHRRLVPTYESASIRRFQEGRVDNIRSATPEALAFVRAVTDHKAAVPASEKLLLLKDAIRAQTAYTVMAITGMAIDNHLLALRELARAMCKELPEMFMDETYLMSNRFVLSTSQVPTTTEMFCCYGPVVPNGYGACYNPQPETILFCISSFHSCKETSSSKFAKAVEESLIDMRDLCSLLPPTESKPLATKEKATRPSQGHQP
Bradykinin, BK2, sequence (P30411 whole entry): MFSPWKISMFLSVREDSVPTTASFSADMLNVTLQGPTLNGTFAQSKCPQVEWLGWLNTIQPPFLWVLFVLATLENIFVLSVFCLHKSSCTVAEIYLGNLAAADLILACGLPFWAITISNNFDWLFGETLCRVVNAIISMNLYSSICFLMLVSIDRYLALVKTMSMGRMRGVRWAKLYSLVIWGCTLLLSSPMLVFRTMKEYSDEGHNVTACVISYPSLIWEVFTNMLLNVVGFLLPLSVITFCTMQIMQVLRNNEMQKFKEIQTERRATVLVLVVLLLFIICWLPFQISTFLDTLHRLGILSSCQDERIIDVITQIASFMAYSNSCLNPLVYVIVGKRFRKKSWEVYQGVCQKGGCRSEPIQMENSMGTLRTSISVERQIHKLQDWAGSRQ
Oxidase, MAO-B, Peripheral, sequence (P27338 whole entry): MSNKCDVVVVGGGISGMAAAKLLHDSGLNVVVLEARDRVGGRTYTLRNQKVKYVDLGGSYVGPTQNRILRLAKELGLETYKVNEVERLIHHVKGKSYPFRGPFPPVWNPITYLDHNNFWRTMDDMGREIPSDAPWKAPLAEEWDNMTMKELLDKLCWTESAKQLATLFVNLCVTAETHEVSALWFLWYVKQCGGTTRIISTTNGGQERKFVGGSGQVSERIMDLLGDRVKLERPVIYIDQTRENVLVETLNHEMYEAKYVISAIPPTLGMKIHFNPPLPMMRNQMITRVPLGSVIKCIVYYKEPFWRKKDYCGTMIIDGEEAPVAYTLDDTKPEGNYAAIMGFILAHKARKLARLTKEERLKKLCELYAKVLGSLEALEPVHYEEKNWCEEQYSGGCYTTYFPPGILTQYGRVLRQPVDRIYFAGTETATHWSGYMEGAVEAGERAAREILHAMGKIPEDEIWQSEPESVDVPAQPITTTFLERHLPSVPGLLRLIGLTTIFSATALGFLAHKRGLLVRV

`CC(C)(CN1CCC(=C2c3ccc(F)cc3COc3ccccc32)CC1)C(=O)O` [Compound 49a] yielded a protein bound in [1] of 75%. For the same molecule, the “inhibition of CYP 2C19 activity” value against CYP 2C19 is “did not inhibit”. Besides, the “inhibition of CYP 3A activity” value in the data set with CYP 3A is “did not inhibit”. The in vitro metabolism result in the data set on rat hepatocytes is recorded as “extensively metabolized”. At hERG, the IC50 (in general, the concentration that inhibits the measured activity by half) came out at 93 µM and the inhibition – broadly, the drop in the measured response relative to a control, in per cent – at 0.01 µM amounted to 10%. Also, in [2], the Kp was 1.
In the case of `CC(CC(=O)O)N1CCC(=C2c3ccc(F)cc3COc3ccccc32)CC1` (stereo not shown) [Compound 37], the “percentage inhibition of specific binding” value in the data set on Glutamate, AMPA Site was 3.59%; with Opioid, Non-selective, −9.30%; with Galanin, Non-Selective it was −5.07%. In addition, the inhibition at 1 µM in data set [3] is 19.5%; on Thromboxane A2 (h) it was 6.55%; on Bradykinin, BK2 it was -3.04%. Further, the percentage inhibition is reported as 6.51% in [4]; 2.54% at Esterase, Acetylcholine; 4.24% in data set [5].
